Where two headings read alike, the source gives them in different places.
Assays:
GABA A receptor α2β3γ2 = target: T1, GABA A receptor α2β3γ2 (Homo sapiens, UniProt P18507+P47869); test: [3H]flumazenil competition binding, human α2β3γ2
T1 construct: expressed in transfected cells; host or cells: HEK293 (transiently transfected), membranes
Experimental: (§1) The affinity of compounds at GABA A receptor subtypes was measured by competition for [^3H]flumazenil (85 Ci/mmol; Roche) binding to HEK293 cells expressing rat (stably transfected) or human (transiently transfected) receptors of composition α1β3γ2, α2β3γ2, α3β3γ2 and α5β3γ2.
(§2) Cell pellets were suspended in Krebs-tris buffer (4.8 mM KCl, 1.2 mM CaCl2, 1.2 mM MgCl2, 120 mM NaCl, 15 mM Tris; pH 7.5; binding assay buffer), homogenized by polytron for ca. 20 sec on ice and centrifuged for 60 min at 4° C. (50000 g; Sorvall, rotor: SM24=20000 rpm). The cell pellets were resuspended in Krebs-tris buffer and homogenized by polytron for ca. 15 sec on ice. Protein was measured (Bradford method, Bio-Rad) and aliquots of 1 mL were prepared and stored at −80° C.
(§3) Radioligand binding assays were carried out in a volume of 200 μL (96-well plates) which contained 100 μL of cell membranes, [^3H]flumazenil at a concentration of 1 nM for α1, α2, α3 subunits and 0.5 nM for α5 subunits and the test compound in the range of 10^−10−3×10^−6 M. Nonspecific binding was defined by 10^−5 M diazepam and typically represented less than 5% of the total binding. Assays were incubated to equilibrium for 1 hour at 4° C. and harvested onto GF/C uni-filters (Packard) by filtration using a Packard harvester and washing with ice-cold-wash buffer (50 mM Tris; pH 7.5). After drying, filter-retained radioactivity was detected by liquid scintillation counting. Ki values were calculated using Excel-Fit (Microsoft) and are the means of two determinations.

GABA A receptor α1β3γ2 = target: T2, GABA A receptor α1β3γ2 (Homo sapiens, UniProt P14867+P18507); test: [3H]flumazenil competition binding, human α1β3γ2
T2 construct: expressed in transfected cells; host or cells: HEK293 (transiently transfected), membranes
Experimental: as §1, §2, §3

GABA A receptor α3β3γ2 = target: T3, GABA A receptor α3β3γ2 (Homo sapiens, UniProt P18507+P34903); test: [3H]flumazenil competition binding, human α3β3γ2
T3 construct: expressed in transfected cells; host or cells: HEK293 (transiently transfected), membranes
Experimental: as §1, §2, §3

GABA A receptor α5β3γ2 = target: T4, GABA A receptor α5β3γ2 (Homo sapiens, UniProt P18507+P31644); test: [3H]flumazenil competition binding, human α5β3γ2
T4 construct: expressed in transfected cells; host or cells: HEK293 (transiently transfected), membranes
Experimental: as §1, §2, §3

[1] = HEK293 cell membranes, human (transiently transfected) receptor, 1 nM [3H]flumazenil, mean of two determinations, read-out: Ki[nM] hα2
[2] = HEK293 cell membranes, human (transiently transfected) receptor, 1 nM [3H]flumazenil, mean of two determinations, read-out: Ki[nM] hα1
[3] = HEK293 cell membranes, human (transiently transfected) receptor, 1 nM [3H]flumazenil, mean of two determinations, read-out: Ki[nM] hα3
[4] = HEK293 cell membranes, human (transiently transfected) receptor, 0.5 nM [3H]flumazenil, mean of two determinations, read-out: Ki[nM] hα5

Row | SMILES | Ki (GABA A receptor α2β3γ2; [1]) | Ki (GABA A receptor α1β3γ2; [2]) | Ki (GABA A receptor α3β3γ2; [3]) | Ki (GABA A receptor α5β3γ2; [4]) | Ki (GABA A receptor α2β3γ2) | Ki (GABA A receptor α1β3γ2) | Ki (GABA A receptor α3β3γ2) | Ki (GABA A receptor α5β3γ2)
1 | CC(=O)c1ncn2c1Cn1ncnc1-c1cc(F)ccc1-2 [Example 1, 1-[3-Fluoro-9H-imidazo[1,5-a][1,2,4]triazolo[1,5-d][1,4]benzodiazepin-10-yl]-ethanone] | 183 nM | 314 nM | 233 nM | 104 nM |  |  |  | 
2 | CCC(=O)c1ncn2c1Cn1ncnc1-c1cc(F)ccc1-2 [Example 2, 1-[3-Fluoro-9H-imidazo[1,5-a][1,2,4]triazolo[1,5-d][1,4]benzodiazepin-10-yl]-propan-1-one] |  |  |  |  | 3.4 nM | 6.2 nM | 3.9 nM | 2.2 nM
3 | O=C(c1ncn2c1Cn1ncnc1-c1cc(F)ccc1-2)C1CC1 [Example 3, Cyclopropyl-[3-fluoro-9H-imidazo[1,5-a][1,2,4]triazolo[1,5-d][1,4]benzodiazepin-10-yl]-methanone] |  |  |  |  | 2 nM | 2.8 nM | 1.8 nM | 1.2 nM
4 | O=C(CCCc1ccccc1)c1ncn2c1Cn1ncnc1-c1cc(F)ccc1-2 [Example 4, 1-[3-Fluoro-9H-imidazo[1,5-a][1,2,4]triazolo[1,5-d][1,4]benzodiazepin-10-yl]-4-phenyl-butan-1-one] |  |  |  |  | 60 nM | 45.6 nM | 55.9 nM | 16.4 nM
5 | CCC(=O)c1ncn2c1Cn1ncnc1-c1cc(Cl)ccc1-2 [Example 5, 1-[3-Chloro-9H-imidazo[1,5-a][1,2,4]triazolo[1,5-d][1,4]benzodiazepin-10-yl]-propan-1-one] |  |  |  |  | 28.1 nM | 32.2 nM | 22.4 nM | 2.7 nM
6 | O=C(c1ncn2c1Cn1ncnc1-c1cc(Cl)ccc1-2)C1CC1 [Example 6, Cyclopropyl-[3-chloro-9H-imidazo[1,5-a][1,2,4]triazolo[1,5-d][1,4]benzodiazepin-10-yl]-methanone] |  |  |  |  | 18 nM | 14.5 nM | 19.9 nM | 2.2 nM
7 | O=C1CCCN1C(=O)c1ncn2c1Cn1ncnc1-c1cc(F)ccc1-2 [Example 9, 1-[[3-Fluoro-9H-imidazo[1,5-a][1,2,4]triazolo[1,5-d][1,4]benzodiazepin-10-yl]carbonyl]-2-pyrrolidinone] |  |  |  |  | 12.3 nM | 12.3 nM | 9 nM | 5.8 nM
8 | C#CCNC(=O)c1ncn2c1Cn1ncnc1-c1cc(F)ccc1-2 [Example 10, 3-Fluoro-9H-imidazo[1,5-a][1,2,4]triazolo[1,5-d][1,4]benzodiazepine-10-carboxylic acid prop-2-ynylamide] |  | 242 nM |  |  | 67.8 nM |  | 64.9 nM | 67.8 nM
9 | CCOC(=O)c1ncn2c1Cn1ncnc1-c1cc(C3CC3)ccc1-2 [Example 12, Ethyl 3-cyclopropyl-9H-imidazo[1,5-a][1,2,4]triazolo[1,5-d][1,4]benzodiazepine-10-carboxylate] |  |  |  |  | 0.9 nM | 1.7 nM | 0.7 nM | 0.6 nM
10 | CCOC(=O)c1ncn2c1Cn1ncnc1-c1cc(OC)ccc1-2 [Example 14, Ethyl 3-methoxy-9H-imidazo[1,5-a][1,2,4]triazolo[1,5-d][1,4]benzodiazepine-10-carboxylate] |  |  |  |  | 1.7 nM | 0.9 nM | 0.9 nM | 0.2 nM
11 | CCOC(=O)c1ncn2c1Cn1ncnc1-c1cc(OC(F)(F)F)ccc1-2 [Example 19, Ethyl 3-trifluoromethoxy-9H-imidazo[1,5-a][1,2,4]triazolo[1,5-d][1,4]benzodiazepine-10-carboxylate] |  |  |  |  | 1.1 nM | 3.4 nM | 1.4 nM | 0.7 nM
12 | O=Cc1ncn2c1Cn1ncnc1-c1cc(Cl)ccc1-2 [Example 21, 3-Chloro-9H-imidazo[1,5-a][1,2,4]triazolo[1,5-d][1,4]benzodiazepine-10-carbaldehyd] | 134 nM | 223 nM |  |  |  |  | 71.9 nM | 5.9 nM
13 | CCOC(=O)c1ncn2c1Cn1ncnc1-c1cc(Br)ccc1-2 [Example 23, Ethyl 3-bromo-9H-imidazo[1,5-a][1,2,4]triazolo[1,5-d][1,4]benzodiazepine-10-carboxylate] | 3.8 nM | 1.9 nM | 1.8 nM | 0.3 nM |  |  |  | 
14 | C#Cc1ccc2c(c1)-c1ncnn1Cc1c(C(=O)OCC)ncn1-2 [Example 24, Ethyl 3-ethynyl-9H-imidazo[1,5-a][1,2,4]triazolo[1,5-d][1,4]benzodiazepine-10-carboxylate] |  |  |  |  | 4.4 nM | 10.6 nM | 6.4 nM | 0.6 nM
15 | COCCOC(=O)c1ncn2c1Cn1ncnc1-c1cc(Br)ccc1-2 [Example 25, 2-Methoxy-ethyl 3-bromo-9H-imidazo[1,5-a][1,2,4]triazolo[1,5-d][1,4]benzodiazepine-10-carboxylate] |  |  |  |  | 28.5 nM | 20.3 nM | 18.8 nM | 1.4 nM
16 | CCCC(=O)c1ncn2c1Cn1ncnc1-c1cc(Br)ccc1-2 [Example 26, 1-[3-Bromo-9H-imidazo[1,5-a][1,2,4]triazolo[1,5-d][1,4]benzodiazepin-10-yl]-butan-1-one] | 106 nM |  |  |  |  | 85.1 nM | 72.7 nM | 3.5 nM
17 | CC(C)CC(=O)c1ncn2c1Cn1ncnc1-c1cc(Br)ccc1-2 [Example 31, 1-[3-Bromo-9H-imidazo[1,5-a][1,2,4]triazolo[1,5-d][1,4]benzodiazepin-10-yl]-3-methyl-butan-1-one] | 261 nM | 243 nM | 173 nM |  |  |  |  | 8.3 nM
18 | O=C(CCc1ccccc1)c1ncn2c1Cn1ncnc1-c1cc(Br)ccc1-2 [Example 33, 1-[3-Bromo-9H-imidazo[1,5-a][1,2,4]triazolo[1,5-d][1,4]benzodiazepin-10-yl]-3-phenyl-propan-1-one] | 160 nM | 109 nM | 133 nM |  |  |  |  | 3.8 nM
19 | CCOC(=O)c1ncn2c1Cn1ncnc1-c1cc(NC(=O)C(F)(F)F)ccc1-2 [Example 38, Ethyl 3-(2,2,2-trifluoro-acetylamino)-9H-imidazo[1,5-a][1,2,4]triazolo[1,5-d][1,4]benzodiazepine-10-carboxylate] |  |  |  |  | 7.3 nM | 3.1 nM | 5.7 nM | 1.2 nM
20 | CCOC(=O)c1ncn2c1Cn1ncnc1-c1cc(NC(=O)C(C)C)ccc1-2 [Example 39, Ethyl 3-isobutyrylamino-9H-imidazo[1,5-a][1,2,4]triazolo[1,5-d][1,4]benzodiazepine-10-carboxylate] |  |  |  |  | 73.5 nM | 11.4 nM | 39.7 nM | 6.4 nM
21 | CCOC(=O)c1ncn2c1Cn1ncnc1-c1cc(NC(=O)CCOC)ccc1-2 [Example 41, Ethyl 3-(3-methoxy-propionylamino)-9H-imidazo[1,5-a][1,2,4]triazolo[1,5-d][1,4]benzodiazepine-10-carboxylate] |  |  |  |  | 24.8 nM | 9.7 nM | 17.7 nM | 5.1 nM
22 | CCOC(=O)c1ncn2c1Cn1ncnc1-c1cc(NC=O)ccc1-2 [Example 42, Ethyl 3-formylamino-9H-imidazo[1,5-a][1,2,4]triazolo[1,5-d][1,4]benzodiazepine-10-carboxylate] |  |  |  |  | 8.6 nM | 6.5 nM | 4.9 nM | 2 nM
23 | CCOC(=O)Nc1ccc2c(c1)-c1ncnn1Cc1c(C(=O)OCC)ncn1-2 [Example 43, Ethyl 3-ethoxycarbonylamino-9H-imidazo[1,5-a][1,2,4]triazolo[1,5-d][1,4]benzodiazepine-10-carboxylate] |  |  |  |  | 22 nM | 5.3 nM | 14.4 nM | 2.6 nM
24 | CCNC(=O)Nc1ccc2c(c1)-c1ncnn1Cc1c(C(=O)OCC)ncn1-2 [Example 44, Ethyl 3-(3-ethyl-ureido)-9H-imidazo[1,5-a][1,2,4]triazolo[1,5-d][1,4]benzodiazepine-10-carboxylate] |  |  |  |  | 26 nM | 20.3 nM | 12.4 nM | 6.9 nM

— patent US7671048B2, “Substituted imidazo [1,5-a][1,2,4]triazolo[1,5-d][1,4]benzodiazepine derivatives” (priority 2004, dated 2010)
